Results published in patent US7557110B2, “Pyrazolo[1,5-A] pyrimidine derivatives” (Teijin Pharma Limited, priority 2003, dated 2009).
Like-named read-outs stand apart in the source and are kept apart here.

Columns and labels:
MAPKAP-K2 = MAPKAP-K2 (Homo sapiens, UniProt P49137); assay: MAPKAP-K2 enzyme activity inhibition (33P-ATP filter plate kinase assay); format: biochemical; details: MAPKAP-K2 inhibitory activity; assays conducted at typically 1-100 μM; note: key: +: active; ++: more active; +++: very active
MAPKAP-K2, sequence (P49137 whole entry): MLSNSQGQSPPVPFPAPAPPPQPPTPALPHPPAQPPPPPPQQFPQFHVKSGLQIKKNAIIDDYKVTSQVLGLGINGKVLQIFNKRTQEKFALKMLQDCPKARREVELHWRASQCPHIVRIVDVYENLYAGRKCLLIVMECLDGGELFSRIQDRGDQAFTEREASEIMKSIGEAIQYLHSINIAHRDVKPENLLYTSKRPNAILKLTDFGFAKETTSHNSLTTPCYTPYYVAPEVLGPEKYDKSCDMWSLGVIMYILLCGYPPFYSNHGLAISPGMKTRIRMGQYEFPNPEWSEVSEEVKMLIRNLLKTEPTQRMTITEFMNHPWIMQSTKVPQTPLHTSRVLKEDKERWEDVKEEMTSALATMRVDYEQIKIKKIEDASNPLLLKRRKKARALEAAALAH
Experimental: [General Procedure for Measurement of MAPKAP-K2 Enzyme Activity Inhibition]
After conducting the reaction for 30 minutes at room temperature, an equivalent volume of a 200 mM phosphoric acid solution was added to suspend the reaction, and 90 μL of the reaction product was adsorbed onto a MultiScreen PH plate (Millipore) and rinsed with a 100 mM phosphoric acid solution. After drying the plate, 30 μL of MicroScint-O (Packard BioScience) was added, and the cpm was measured with a scintillation counter to determine the inhibiting activity. Substrate peptide is […]

CDK-2 = CDK-2 (Homo sapiens, UniProt P24941); assay: CDK-2 enzyme activity inhibition (33P-ATP filter plate kinase assay); format: biochemical
Text: [General Procedure for Measurement of CDK-2 Enzyme Activity Inhibition]

[1] = read-out: CDK-2 inhibition IC50

| SMILES | activity (efficacy against MAPKAP-K2) (MAPKAP-K2) | IC50 (CDK-2) | IC50 (CDK-2; [1]) |
| --- | --- | --- | --- |
| N#Cc1cnn2c(Nc3ccc(F)c(Cl)c3)cc(N[C@H]3CC[C@H](N)CC3)nc12 [Compound 1] | ++ | < 100 µM |  |
| N[C@H]1CC[C@H](Nc2cc(NCc3ccc(F)c(Cl)c3)n3ncc(Br)c3n2)CC1 [Compound 13] | + |  | < 100 µM |
| CCc1c(N[C@H]2CC[C@H](N)CC2)nc2ccnn2c1Nc1ccccc1OC [Compound 42] | ++ |  | < 100 µM |
| N[C@H]1CC[C@H](Nc2cc(Nc3ccccc3Cl)n3ncc(I)c3n2)CC1 [Compound 47] | ++ |  | < 100 µM |
| CCc1c(NC2CCCNC2)nc2ccnn2c1Nc1ccc(Oc2ccc(C)cc2)cc1 (stereo not shown) [Compound 63] | +++ |  | < 100 µM |
| CCOc1ccc(Nc2cc(N[C@H]3CC[C@H](N)CC3)nc3c(C#N)cnn23)cc1 [Compound 64] | +++ |  | < 100 µM |
| CCOC(=O)c1cccc(Nc2c(C)c(N[C@H]3CC[C@H](N)CC3)nc3ccnn23)c1 [Compound 68] | +++ |  | < 100 µM |
| CCOC(=O)c1ccc(Nc2c(CC)c(N[C@H]3CC[C@H](N)CC3)nc3ccnn23)cc1 [Compound 70] | +++ |  | < 100 µM |
| CCc1c(N[C@H]2CC[C@H](N)CC2)nc2ccnn2c1Nc1cccc(C)c1 [Compound 72] | +++ |  | < 100 µM |
| CCc1c(N[C@H]2CC[C@H](N)CC2)nc2ccnn2c1Nc1cccc(OCc2ccccc2)c1 [Compound 74] | ++ |  | < 100 µM |
| CCOc1cccc(Nc2c(C)c(N[C@H]3CC[C@H](N)CC3)nc3ccnn23)c1 [Compound 81] | +++ |  | < 100 µM |
| CCCNc1c(C)c(N[C@H]2CC[C@H](N)CC2)nc2ccnn12 [Compound 87] | ++ |  | < 100 µM |
| Cc1ccc(Nc2c(C)c(NC3CCCNC3)nc3ccnn23)cc1C (stereo not shown) [Compound 89] | +++ |  | < 100 µM |
| COc1cccc(Nc2c(C)c(N[C@H]3CC[C@H](N)CC3)nc3ccnn23)c1 [Compound 91] | ++ |  | < 100 µM |
| Cc1c(NC2CCCNC2)nc2ccnn2c1Nc1ccc(I)cc1 (stereo not shown) [Compound 105] | +++ |  | < 100 µM |
| CCOc1ccc(Nc2c(C(C)C)c(N[C@H]3CC[C@H](N)CC3)nc3ccnn23)cc1 [Compound 114] | +++ |  | < 100 µM |
| CCc1c(N[C@H]2CC[C@H](N)CC2)nc2ccnn2c1Nc1ccc(N2CCCC2=O)cc1 [Compound 125] | ++ |  | < 100 µM |
| Cc1c(N[C@H]2CC[C@H](N)CC2)nc2ccnn2c1Nc1ccc2cn[nH]c2c1 [Compound 131] | +++ |  | < 100 µM |
| CCOC(=O)c1ccc(Nc2c(CC)c(N[C@H]3CC[C@H](N)CC3)nc3ccnn23)cc1Cl [Compound 137] | +++ |  | < 100 µM |
| CCOc1ccc(Nc2c(-c3ccc(OC)cc3)c(N[C@H]3CC[C@H](N)CC3)nc3ccnn23)cc1 [Compound 140] | +++ |  | < 100 µM |
| Cc1c(NC2CCCNC2)nc2ccnn2c1Nc1ccc(F)c(Cl)c1 (stereo not shown) [Compound 152] | ++ |  |  |
| Cc1c(NC2CCCNC2)nc2ccnn2c1Nc1ccccc1F (stereo not shown) [Compound 156] | +++ |  | < 100 µM |
| CCc1c(NC2CCCNC2)nc2ccnn2c1Nc1ccc(Br)cc1 (stereo not shown) [Compound 160] | ++ |  | < 100 µM |
| N#Cc1cnn2c(Nc3ccccc3Cl)cc(N[C@H]3CC[C@H](N)CC3)nc12 [Compound 170] | +++ |  | < 100 µM |
| COc1c(N[C@H]2CC[C@H](N)CC2)nc2ccnn2c1Nc1ccc(F)c(Cl)c1 [Compound 172] | ++ |  | < 100 µM |

Next, values leading:

| activity (efficacy against MAPKAP-K2) (MAPKAP-K2) | IC50 (CDK-2) | IC50 (CDK-2; [1]) | SMILES |
| --- | --- | --- | --- |
| ++ |  |  | CCCC1CCNCC1Nc1nc2ccnn2c(Nc2ccc(OCC)cc2)c1C (racemic) [Compound 814, 7-N-(4-Ethoxy-phenyl)-6-methyl-5-N-(4-propyl-piperidin-3-yl)-pyrazolo[1,5-a]pyrimidine-5,7-diamine] |
| +++ |  | < 100 µM | CCOc1ccc(Nc2c(OC)c(NC3CCCNC3)nc3ccnn23)cc1 (stereo not shown) [Compound 173] |
| +++ |  | < 100 µM | Cc1c(N[C@H]2CC[C@H](N)CC2)nc2ccnn2c1Nc1ccc(OCc2ccccc2)cc1 [Compound 176] |
| +++ |  | < 100 µM | Cc1c(N[C@H]2CC[C@H](N)CC2)nc2ccnn2c1Nc1ccc(OC(F)(F)F)cc1 [Compound 179] |
| +++ | < 100 µM |  | Cc1c(NC2CCCNC2)nc2ccnn2c1Nc1ccc(F)c(Cl)c1 (stereo not shown) [Compound 191] |
| +++ |  | < 100 µM | Cc1c(N[C@H]2CC[C@H](N)CC2)nc2ccnn2c1Nc1ccc(O)cc1 [Compound 196] |
| +++ |  | < 100 µM | Cc1c(N[C@H]2CC[C@H](N)CC2)nc2ccnn2c1Nc1ccc(OC(C)C)cc1 [Compound 197, {5-[(trans-4-aminocyclohexyl)amino]-6-methyl(pyrazolo[1,5-a]pyrimidin-7-yl)}[4-(methylethoxy)phenyl]amine] |
| +++ |  | < 100 µM | Cc1c(N[C@H]2CC[C@H](N)CC2)nc2ccnn2c1Nc1ccc(OCCCl)cc1 [Compound 199] |
| +++ |  | < 100 µM | CCCOc1ccc(Nc2c(C)c(N[C@H]3CC[C@H](N)CC3)nc3ccnn23)cc1 [Compound 201] |
| +++ |  | < 100 µM | Cc1c(N[C@H]2CC[C@H](N)CC2)nc2ccnn2c1Nc1ccc(OC2CCCCC2)cc1 [Compound 202] |
| +++ |  | < 100 µM | COc1ccc(Nc2c(C)c(N[C@H]3CC[C@H](N)CC3)nc3ccnn23)cc1 [Compound 203] |
| ++ |  | < 100 µM | Cc1c(N[C@H]2CC[C@H](N)CC2)nc2ccnn2c1Nc1ccc(OCc2ccc(N)cc2)cc1 [Compound 204] |
| ++ |  |  | Cc1c(N[C@H]2CC[C@H](N)CC2)nc2ccnn2c1Nc1cccc(OCCN2CCNCC2)c1 [Compound 259, {5-[(trans-4-aminocyclohexyl)amino]-6-methyl(pyrazolo[1,5-a]pyrimidin-7-yl)}[3-(2-piperazinylethoxy)phenyl]amine] |
| ++ |  |  | CCOc1ccc(Nc2c(C)c(NC3CCCCNC3)nc3ccnn23)cc1 (stereo not shown) [Compound 272, [5-(azaperhydroepin-3-ylamino)-6-methyl(pyrazolo[1,5-a]pyrimidin-7-yl)](4-ethoxyphenyl)amine] |
|  |  | < 100 µM | CCOc1ccc(Nc2c(C)c(NC(CO)C(C)C)nc3ccnn23)cc1 (stereo not shown) [Compound 366] |
|  |  | < 100 µM | CCOc1ccc(Nc2c(C)c(NC3(CO)CCCC3)nc3ccnn23)cc1 [Compound 368] |
|  |  | < 100 µM | CCOc1ccc(Nc2c(C)c(NC(C)(C)CO)nc3ccnn23)cc1 [Compound 371] |
| +++ |  |  | Cc1c(N[C@H]2CC[C@H](N)CC2)nc2ccnn2c1Nc1ccc(C#Cc2ccccc2)cc1 [Compound 375, {5-[(trans-4-aminocyclohexyl)amino]-6-methyl(pyrazolo[1,5-a]pyrimidin-7-yl)}[4-(2-phenylethynyl)phenyl]amine] |
| + |  |  | CCOc1ccc(Nc2c(C)c(N[C@H]3CC[C@H](N)CC3)nc3c(NC(C)=O)cnn23)cc1 [Compound 378, N-{5-[(trans-4-aminocyclohexyl)amino]-7-[(4-ethoxyphenyl)amino]-6-methyl(pyrazolo[1,5-a]pyrimidin-3-yl)}acetamide] |
| + |  |  | CCOc1ccc(Nc2c(C)c(N[C@H]3CC[C@H](N)CC3)nc3c(NS(C)(=O)=O)cnn23)cc1 [Compound 386, {5-[(trans-4-aminocyclohexyl)amino]-7-[(4-ethoxyphenyl)amino]-6-methyl(pyrazolo[1,5-a]pyrimidin-3-yl)}(methylsulfonyl)amine] |
| ++ |  |  | CCOc1ccc(Nc2c(C)c(N[C@H]3CC[C@H](N)CC3)nc3c(NC(=O)Nc4ccccc4)cnn23)cc1 [Compound 389, N-{5-[(trans-4-aminocyclohexyl)amino]-7-[(4-ethoxyphenyl)amino]-6-methyl(pyrazolo[1,5-a]pyrimidin-3-yl)}(phenylamino)carboxamide] |
|  |  | < 100 µM | CCOc1ccc(Nc2c(C)c(N[C@H]3CC[C@H](N)CC3)nc3c(OC)cnn23)cc1 [Compound 425] |
| + |  |  | CCOc1ccc(Nc2c(C)c(N[C@H]3CC[C@H](N)CC3)nc3c(NCc4ccccc4)cnn23)cc1 [Compound 436, {5-[(trans-4-aminocyclohexyl)amino]-6-methyl-[3-benzylamino](pyrazolo[1,5-a]pyrimidin-7-yl)}(4-ethoxyphenyl)amine] |
| +++ |  |  | Cc1c(N[C@H]2CC[C@H](N)CC2)nc2ccnn2c1Nc1cccc(-c2cccnc2)c1 [Compound 450, {5-[(trans-4-aminocyclohexyl)amino]-6-methyl(pyrazolo[1,5-a]pyrimidin-7-yl)}(3-(3-pyridyl)phenyl)amine] |
| +++ |  |  | Cc1c(N[C@H]2CC[C@H](N)CC2)nc2ccnn2c1Nc1ccc(C(=O)N2CCCC2)cc1 [Compound 792, 4-({5-[(trans-4-aminocyclohexyl)amino]-6-methyl(pyrazolo[1,5-a]pyrimidin-7-yl)}amino)phenyl pyrrolidinyl ketone] |
